Several values for one entry are separate records, joined by “and”; a condition that tells them apart may be missing. Equal entries are not always repeated.
Test system: DMS 114 tumor spheroids, viability % test/control
Experiment: Anticancer human tumor DMS 114 cell line growth inhibition;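 further: spheroids exposed to compounds for 7 days before read-out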;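 on viability, T/C: luminescence used as a proxy for viable cells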
Conditions: spheroids with HUVEC and MSC; for viability, T/C: stronger effect = lower value
In short: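 Complex tumor spheroids combined malignant cells with endothelial cells and mesenchymal stem cells. DNA-damaging drugs and DNA repair inhibitors were tested alone and in combination, at half-log dilutions down from clinical Cmax (top 10 microM if Cmax unknown), 0.25% DMSO final.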

`CC1COCCN1c1cc(-c2ccnn2C)c2ccnc(-c3ccn[nH]3)c2n1` (configuration not stated) + COc1cc2c(cc1O)CCNC21CSC2c3c(OC(C)=O)c(C)c4c(c3C(COC1=O)N1C(O)C3Cc5cc(C)c(OC)c(O)c5C(C21)N3C)OCO4 was tested, and the IC50 (curve of first compound, second compound 30 pM) was under 0.0316 µM, the IC50 (curve of first compound, second compound 94.9 pM) was under 0.0316 µM and the IC50 (curve of first compound, second compound 0.0003 µM) was under 0.0316 µM. The IC50 (curve of first compound, second compound 0.000949 µM) was under 0.0316 µM, the IC50 (curve of first compound, second compound 0.003 µM) was under 0.0316 µM and the viability, T/C (second compound 30 pM, first compound 0.0316 µM) was 28.2%. For the same compound, the viability, T/C (second compound 30 pM, first compound 0.1 µM) was 21.9%, the viability, T/C (second compound 30 pM, first compound 0.316 µM) was 17.3% and the viability, T/C (second compound 30 pM, first compound 1 µM) was 11.8%. It also gave a viability, T/C (second compound 30 pM, first compound 3.16 µM) of 7.86%, a viability, T/C (second compound 30 pM, first compound 10 µM) of 10.1% and a viability, T/C (second compound 94.9 pM, first compound 0.0316 µM) of 17.6%. It also gave a viability, T/C (second compound 94.9 pM, first compound 0.1 µM) of 15.9%, a viability, T/C (second compound 94.9 pM, first compound 0.316 µM) of 12.1% and a viability, T/C (second compound 94.9 pM, first compound 1 µM) of 9.53%. The viability, T/C (second compound 94.9 pM, first compound 3.16 µM) was 6.98%, the viability, T/C (second compound 94.9 pM, first compound 10 µM) was 8.67% and the viability, T/C (second compound 0.0003 µM, first compound 0.0316 µM) was 9.96%. The viability, T/C (second compound 0.0003 µM, first compound 0.1 µM) was 7.98%, the viability, T/C (second compound 0.0003 µM, first compound 0.316 µM) was 7.58% and the viability, T/C (second compound 0.0003 µM, first compound 1 µM) was 5.84%. For the same compound, the viability, T/C (second compound 0.0003 µM, first compound 3.16 µM) was 4.87%, the viability, T/C (second compound 0.0003 µM, first compound 10 µM) was 5.28% and the viability, T/C (second compound 0.000949 µM, first compound 0.0316 µM) was 1.57%. It also gave a viability, T/C (second compound 0.000949 µM, first compound 0.1 µM) of 1.39%, a viability, T/C (second compound 0.000949 µM, first compound 0.316 µM) of 1.26% and a viability, T/C (second compound 0.000949 µM, first compound 1 µM) of 0.89%. For the same compound, the viability, T/C (second compound 0.000949 µM, first compound 3.16 µM) was 1.12%, the viability, T/C (second compound 0.000949 µM, first compound 10 µM) was 0.45% and the viability, T/C (second compound 0.003 µM, first compound 0.0316 µM) was 0.2%. It also gave a viability, T/C (second compound 0.003 µM, first compound 0.1 µM) of 0.22%, a viability, T/C (second compound 0.003 µM, first compound 0.316 µM) of 0.15% and a viability, T/C (second compound 0.003 µM, first compound 1 µM) of 0.15%. The viability, T/C (second compound 0.003 µM, first compound 3.16 µM) was 0.12% and the viability, T/C (second compound 0.003 µM, first compound 10 µM) was 0.22%.
`COc1ccc([C@@H](O)c2cc(-c3ncnc4cc(N5CCOCC5)ccc34)c(F)cc2Cl)nn1` was tested, and the viability, T/C (compound 0.0316 µM) was 98.5% and 111% and 96.3%, the viability, T/C (compound 0.1 µM) was 100% and 104% and 105% and the viability, T/C (compound 0.316 µM) was 98% and 103% and 108%. For the same compound, the viability, T/C (compound 1 µM) was 98.8% and 121% and 100%, the viability, T/C (compound 3.16 µM) was 81.9% and 95.8% and 92.8% and the viability, T/C (compound 10 µM) was 40.5% and 46.1% and 35.6%. For the same compound, the IC50 (curve of compound) was 7.8 µM and 9.15 µM and 7.49 µM.
With `O=C(c1cc(Cc2n[nH]c(=O)c3ccccc23)ccc1F)N1CCN(C(=O)C2CC2)CC1` + Cn1nnc2c(C(N)=O)ncn2c1=O the IC50 (curve of first compound, second compound 1 µM) was 20 µM, the IC50 (curve of first compound, second compound 3.16 µM) was 21.9 µM and the IC50 (curve of first compound, second compound 10 µM) was 10.2 µM. It also gave an IC50 (curve of first compound, second compound 31.6 µM) of 2.66 µM, an IC50 (curve of first compound, second compound 100 µM) of 0.252 µM and a viability, T/C (second compound 1 µM, first compound 0.0949 µM) of 106%. It also gave a viability, T/C (second compound 1 µM, first compound 0.3 µM) of 99.2%, a viability, T/C (second compound 1 µM, first compound 0.949 µM) of 105% and a viability, T/C (second compound 1 µM, first compound 3 µM) of 106%. For the same compound, the viability, T/C (second compound 1 µM, first compound 9.49 µM) was 73.9%, the viability, T/C (second compound 1 µM, first compound 30 µM) was 37% and the viability, T/C (second compound 3.16 µM, first compound 0.0949 µM) was 112%. The viability, T/C (second compound 3.16 µM, first compound 0.3 µM) was 109%, the viability, T/C (second compound 3.16 µM, first compound 0.949 µM) was 108% and the viability, T/C (second compound 3.16 µM, first compound 3 µM) was 102%. It also gave a viability, T/C (second compound 3.16 µM, first compound 9.49 µM) of 68.5%, a viability, T/C (second compound 3.16 µM, first compound 30 µM) of 43.1% and a viability, T/C (second compound 10 µM, first compound 0.0949 µM) of 120%. For the same compound, the viability, T/C (second compound 10 µM, first compound 0.3 µM) was 111%, the viability, T/C (second compound 10 µM, first compound 0.949 µM) was 118% and the viability, T/C (second compound 10 µM, first compound 3 µM) was 81.6%. The viability, T/C (second compound 10 µM, first compound 9.49 µM) was 54.3%, the viability, T/C (second compound 10 µM, first compound 30 µM) was 30.1% and the viability, T/C (second compound 31.6 µM, first compound 0.0949 µM) was 110%. The viability, T/C (second compound 31.6 µM, first compound 0.3 µM) was 103%, the viability, T/C (second compound 31.6 µM, first compound 0.949 µM) was 83.7% and the viability, T/C (second compound 31.6 µM, first compound 3 µM) was 46.2%. The viability, T/C (second compound 31.6 µM, first compound 9.49 µM) was 28.1%, the viability, T/C (second compound 31.6 µM, first compound 30 µM) was 25.8% and the viability, T/C (second compound 100 µM, first compound 0.0949 µM) was 60.2%. The viability, T/C (second compound 100 µM, first compound 0.3 µM) was 48.7%, the viability, T/C (second compound 100 µM, first compound 0.949 µM) was 32.9% and the viability, T/C (second compound 100 µM, first compound 3 µM) was 25.4%. It also gave a viability, T/C (second compound 100 µM, first compound 9.49 µM) of 21.1% and a viability, T/C (second compound 100 µM, first compound 30 µM) of 19%.

From PubChem BioAssay AID1845202 (Molecular Pharmacology Branch, DTP, NCI, 2023)
